The source of these data is a melting point compilation (Tetko et al.).

Consider `O=C1CCc2cc(C(=O)c3ccccc3)ccc2N1`, for which the melting point was 207 to 209 °C.

`O=C(O)c1cc(Br)c2occc2c1` returned a melting point of 239 to 241 °C.

In the case of `NCC(Cc1ccc(F)cc1)C(N)=O` (configuration not stated), the melting point lay within 119 to 121 °C.

As to `CN(C)C(=O)N1CCCC(C(=O)O)C1` (configuration not stated), the melting point was 123 to 125 °C.

With `CCOC(=O)C(=O)c1nccn1Cc1ccccc1`, the melting point was 57 to 59 °C.

With `O=C(O)CCSCc1cn2ccccc2n1`, the melting point was 95 to 98 °C.

On to `Cc1cc(C)cc(-c2nnc(S)o2)c1`, for which the melting point lay within 240 to 242 °C.

`Clc1nc(-c2ccccn2)nc2sc(-c3ccccc3)cc12` yielded a melting point of 186 to 188 °C.

Compound `[N-]=[N+]=Nc1ccc(Br)cc1Cl` displayed a melting point of 60 to 62 °C.

Compound `NC(=O)COc1cccnc1` had a melting point of 93 to 95 °C.

Consider `Nc1c(C(=O)O)ccnc1Br`, for which the melting point lay within 224 to 226 °C.

Compound `COc1ccc2nc(Sc3ncccc3C(=O)O)[nH]c2c1` gave a melting point of 219 to 221 °C.

`Cc1ncc(-c2ccc(N)cc2)o1` registered a melting point of 126 to 128 °C.

Regarding `COC(=O)Nc1ccccc1C(=O)O`, the melting point was in the range of 177 to 179 °C.

`FC(F)(F)Cn1nnnc1S` came in with a melting point of 122 to 124 °C.

`CC1CN(Cc2ccc(C(=O)O)cc2)CCO1` (configuration not stated): the melting point lay within 186 to 188 °C.

With `ClCc1csc(-c2ccccc2Cl)n1`, the melting point lay within 55 to 57 °C.

`O=C(O)CNc1ccc(Br)cc1` came in with a melting point of 154 to 156 °C.

In turn, `Cc1cc(C(=O)O)[nH]c(=O)n1` showed a melting point of 209 to 211 °C.

Regarding `COc1ccc(CCC(=O)O)cc1N`, the melting point fell in the range of 121 to 123 °C.

For `O=C(CCl)c1nnc(-c2ccccc2)o1`, the melting point lay within 123 to 125 °C.

Compound `N#Cc1ccc(-c2nnc(CCl)o2)cc1` displayed a melting point of 143 to 145 °C.

As to `COc1ccccc1NS(=O)(=O)c1cc(C(=O)O)ccc1Cl`, the melting point is 176 to 178 °C.

The compound `CC(Cn1cncn1)C(N)=S` (configuration not stated) gave a melting point of 169 to 171 °C.

Compound `O=C(O)c1cc([N+](=O)[O-])ccc1Sc1nnnn1-c1ccccc1` came in with a melting point of 218 to 220 °C.

Compound `Nc1nc2c3c(ccc2s1)CCCC3` displayed a melting point of 122 to 124 °C.

On to `Cc1ccccc1C(C)(C)C(=O)O`, for which the melting point lay within 93 to 95 °C.

`O=C(O)c1c[nH]nc1C1CCCCC1` had a melting point of 269 to 271 °C.

In turn, `O=C(O)c1cccc(NC(=O)C2Cc3ccccc3O2)c1` (configuration not stated) returned a melting point of 252 to 254 °C.

Compound `O=C(O)c1cccc(N2NC(=O)C3CC=CCC3C2=O)c1` (configuration not stated) registered a melting point of 185 to 187 °C.

On to `CC(=O)c1ccc(S(C)=O)cc1` (configuration not stated), for which the melting point was in the range of 105 to 107 °C.

In turn, `O=c1[nH]c2ccc(S(=O)(=O)Cl)cc2o1` registered a melting point of 151 to 155 °C.

`Nc1cccc(-c2n[nH]c3c2CCCC3)c1` displayed a melting point of 159 to 161 °C.

Regarding `Cc1cccc(COc2ccc(S(N)(=O)=O)cc2)c1`, the melting point was 159 to 161 °C.

Compound `Cn1ncc2c1CCCC2O` (configuration not stated) came in with a melting point of 104 to 106 °C.

The compound `COC(=O)c1cc(S(=O)(=O)Cl)ccc1Cl` registered a melting point of 79 to 81 °C.

`Cn1[nH]c(=O)nc1S` displayed a melting point of 216 to 220 °C.

In turn, `CC(C)(C)OC(=O)N1CCC(OC(=O)c2ccccc2N)CC1` registered a melting point of 120 to 122 °C.

For the compound `COc1cccc(/C=C/C(=O)O)c1OC(F)F`, the melting point lay within 208 to 210 °C.

Take `CN1CCC(O)(Cc2ccccc2Cl)CC1`: the melting point is 73 to 75 °C.

`CCOc1ccc(N2CC(C(=O)O)CC2=O)cc1` (configuration not stated) showed a melting point of 133 to 137 °C.

Regarding `CNc1cn[nH]c(=O)c1`, the melting point fell in the range of 279 to 281 °C.

Turning to `O=c1[nH]ccnc1Cl`, the melting point lay in the range of 159 to 161 °C.

As to `N#Cc1ccc(NCC(=O)O)cc1`, the melting point is 225 to 227 °C.

`CCc1ccc(C(=O)CCl)s1` had a melting point of 52 to 54 °C.

In the case of `CCCC1CNCCN1` (configuration not stated), the melting point was 59 to 61 °C.

Compound `Cc1cc(C)c(S(=O)(=O)NCCC(=O)O)c(C)c1` had a melting point of 118 to 120 °C.

As for `O=C(O)c1cc(NS(=O)(=O)c2cc([N+](=O)[O-])ccc2Cl)ccc1O`, the melting point lay within 43 to 45 °C.

For `Oc1ccc(Oc2nccs2)cc1`, the melting point lay in the range of 126 to 128 °C.

`CC(c1nnc(S)n1-c1ccc(F)cc1)N1CCCCC1` (configuration not stated) came in with a melting point of 115 to 117 °C.

In turn, `O=Cc1ccc(Oc2cnccn2)cc1` showed a melting point of 79 to 81 °C.

For the compound `CC(C)(C)OC(=O)Nc1ccoc1`, the melting point lay in the range of 139 to 141 °C.

`Fc1ccc2nc(S)n(-c3ccccc3F)c2c1` registered a melting point of 220 to 222 °C.

`CCN(CC)S(=O)(=O)c1cc(C)c(C)c(N)c1` yielded a melting point of 147 to 149 °C.

Take `O=C1CC2CCCN2c2ccccc2N1` (configuration not stated): the melting point fell in the range of 139 to 141 °C.

In turn, `Cc1cc(N)n(C2CCOCC2)n1` yielded a melting point of 177 to 179 °C.

As for `CC(NS(=O)(=O)c1cccc(C(=O)O)c1)c1ccccc1` (configuration not stated), the melting point lay in the range of 149 to 151 °C.

Take `COC(=O)c1ccccc1CCC(=O)O`: the melting point is 74 to 76 °C.

`CC(C(=O)O)c1ccc(S(=O)(=O)N(C)C)cc1` (configuration not stated) returned a melting point of 122 to 124 °C.

In the case of `O=C(O)c1cnsn1`, the melting point lay within 167 to 169 °C.

As for `COC(=O)C(c1ccc(F)cc1)N1CCN(C(=O)OC(C)(C)C)CC1` (configuration not stated), the melting point lay in the range of 82 to 84 °C.

`O=C(Cc1ccc(Br)cc1)Nc1cccc(C(=O)O)c1`: the melting point was 291 to 293 °C.

For the compound `CN(C)c1ccc(NCc2ccc3ccccc3n2)cc1`, the melting point lay in the range of 104 to 106 °C.

`COc1ccc(S(=O)(=O)N2CCNCC2)cc1OC` registered a melting point of 145 to 147 °C.

Consider `O=C(O)c1cnn(-c2ccc(C(F)(F)F)cn2)c1C(F)(F)F`, for which the melting point is 162 to 164 °C.

`CN1C(=O)CC(C(=O)O)c2ccccc21` (configuration not stated) registered a melting point of 162 to 164 °C.

With `COc1cc(C)sc1C(=O)O`, the melting point was 159 to 161 °C.

For `O=C(NCCCN1CCCC1=O)OCC(F)(F)F`, the melting point is 35 to 37 °C.

The compound `COc1ccc(OC)c(CBr)c1` yielded a melting point of 77 to 79 °C.

`Cc1ccc(-n2nc(C(=O)O)c3c2CCC3)c(F)c1` showed a melting point of 219 to 221 °C.

Regarding `COc1ccc2nc(Cl)c(C)cc2c1`, the melting point was in the range of 92 to 94 °C.

For `O=C(O)CCc1ncc(-c2ccccc2Cl)o1`, the melting point was in the range of 184 to 186 °C.

Consider `COC(=O)c1cccc(C(=O)O)n1`, for which the melting point lay in the range of 149 to 151 °C.

With `Cc1ccc(-n2nnc(C(=O)O)c2C)cc1`, the melting point fell in the range of 184 to 186 °C.

`COc1ccc(C(=O)c2ccccc2)c(OC)c1` registered a melting point of 81 to 83 °C.

Consider `CN1CCc2nc(N)c(C#N)cc2C1`, for which the melting point was 215 to 217 °C.

`CCOc1ccc(F)c(C(=O)O)c1F` returned a melting point of 149 to 151 °C.

In turn, `Nc1ccc(N2CCOCC2)cn1` gave a melting point of 143 to 145 °C.

`O=C(O)Cc1cnn(-c2ccccc2)n1` returned a melting point of 105 to 107 °C.

With `Cc1cc(C(=O)O)n2nc(C)cc2n1`, the melting point is 189 to 191 °C.

The compound `O=C(NC1CC1)C1CCNCC1` displayed a melting point of 135 to 137 °C.

Consider `CS(=O)(=O)CC(=O)c1ccccc1`, for which the melting point was 106 to 108 °C.

Compound `Cc1ccc(C)n1Cc1ccccc1Cl` gave a melting point of 87 to 89 °C.

Take `Nc1nc2cc(F)c(F)cc2s1`: the melting point was in the range of 171 to 173 °C.

As to `CC(C)(C)OC(=O)N1CC=C(n2c(=O)[nH]c3ccccc32)CC1`, the melting point is 201 to 203 °C.

Compound `Cc1ccc(C=O)nc1` returned a melting point of 39 to 41 °C.

On to `NS(=O)(=O)c1ccc(C(=O)O)cn1`, for which the melting point lay within 219 to 221 °C.

Compound `Nc1nc(-c2ccncc2)cs1` gave a melting point of 172 to 174 °C.

Compound `Oc1cc(C(F)(F)F)nc(-c2cccnc2)n1` came in with a melting point of 277 to 279 °C.

For `C=CCn1c(N)c(C#N)sc1=S`, the melting point is 174 to 176 °C.

`Nc1nc(-c2ccsc2)ns1` registered a melting point of 172 to 174 °C.

Compound `Nc1nc(N)nc(CCl)n1` had a melting point of 221 to 223 °C.

`CCCCc1ccc(-n2nnnc2S)cc1` returned a melting point of 88 to 92 °C.

As for `OC(c1ccc(F)cc1)C1CCNCC1` (configuration not stated), the melting point was 146 to 148 °C.

For the compound `CCNc1ccc(C#N)c(Cl)c1`, the melting point is 69 to 71 °C.

`NNC(=O)NCC1CCCO1` (configuration not stated) had a melting point of 79 to 81 °C.

Regarding `CCCOc1ccc(Br)cc1C=O`, the melting point lay in the range of 47 to 49 °C.

Take `O=C(O)c1cccc(CN2CCS(=O)(=O)CC2)c1`: the melting point was in the range of 230 to 232 °C.

As to `O=C(O)CCN1C(=O)CCc2cc(F)ccc21`, the melting point was in the range of 149 to 151 °C.

Take `O=S(=O)(Cl)c1ccc2c(c1)S(=O)(=O)CC2`: the melting point was in the range of 128 to 130 °C.

`O=C(O)C1CCCCN1C(=O)C1CCCC1` (configuration not stated) yielded a melting point of 121 to 123 °C.

In turn, `COc1cccc(Oc2ccc(N)cc2)c1` returned a melting point of 62 to 64 °C.

In turn, `CCOC(=O)c1cnccn1` returned a melting point of 48 to 50 °C.

On to `O=C(O)c1ccc2ncc(I)n2c1`, for which the melting point fell in the range of 254 to 256 °C.

Consider `O=Cc1ccnc(-c2ccccc2)n1`, for which the melting point is 116 to 118 °C.

`Fc1ccc(-c2ccn[nH]2)cc1Cl` displayed a melting point of 109 to 111 °C.

For the compound `O=C(O)CCNc1ccccn1`, the melting point is 169 to 171 °C.

In the case of `Nc1cc(-c2cc(Cl)cc(Cl)c2)no1`, the melting point was 132 to 134 °C.

The compound `ClCc1csc(-c2ncccn2)n1` registered a melting point of 147 to 149 °C.

`Cc1cc2nnc(S)n2c(C)n1`: the melting point lay within 250 to 252 °C.

`CC(C)Cn1c(N)c(C(=O)CCl)c(=O)n(C)c1=O` returned a melting point of 104 to 106 °C.

`Cc1cc(C)n2ncc(C(N)=NO)c2n1` returned a melting point of 227 to 229 °C.

`CC(C)C(Oc1ccc(Br)cc1)C(=O)O` (configuration not stated): the melting point fell in the range of 105 to 107 °C.

The compound `Cc1ccccc1NC(=O)C1CCc2ccccc2N1` (configuration not stated) displayed a melting point of 115 to 117 °C.

With `CN(C)c1ccc(Cn2nccc2N)cc1`, the melting point is 60 to 62 °C.

`Cc1ccccc1-n1c(S)nnc1-c1ccncc1` displayed a melting point of 280 to 282 °C.

Compound `CCOc1ccc(-c2nc(CO)cs2)cc1` gave a melting point of 107 to 109 °C.

In turn, `ClCc1cc2c(cc1Cl)OCCCO2` displayed a melting point of 55 to 57 °C.

`O=C(O)CCNC(=O)c1cccs1` yielded a melting point of 220 to 222 °C.

For `CS(=O)(=O)Nc1ccccc1F`, the melting point fell in the range of 75 to 77 °C.

In turn, `CC(Cl)C(=O)Nc1sc2c(c1C#N)CCC2` (configuration not stated) returned a melting point of 204 to 206 °C.

`O=C(O)c1cnc(-c2ccccc2F)s1` yielded a melting point of 187 to 189 °C.
